Among the data in PubChem BioAssay AID179 (DTP/NCI, 2004) are EC50, IC50 and outcome values, retold here.

The assay has as its system CEM cells HIV-1 protection, formazan growth assay. The experiment in a line: NCI AIDS Antiviral Assay. Conditions: for IC50: measured here: growth of uninfected CEM cells. The gist of the method:
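Category rules: moderately active means at least 50% protection on retest, and confirmed active means 100% protection reproducibly. The underlying data came from a formazan growth assay in HIV-1-infected CEM cells.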

Structures are written as SMILES. Activity calls are given as the source filed them.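 The calls were made as follows: active = compounds giving half or more protection of infected cells from virus-caused growth loss, again on retest; inactive = the rest.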 Where a SMILES comes first, the peptide text is derived from it.

Regarding `CN(C)c1ccc(C=Nc2ccc(/C=C3\C=Cc4ccccc43)cc2)cc1`, the EC50 was more than 20.4 µM and the 50% inhibitory concentration (IC50) is more than 20.4 µM. In the case of `CCC(C)C(NC(=O)C(N)CCC(=O)O)C(=O)NC(CCCCN)C(=O)NCC(=O)NC(C(=O)NC(C(=O)NC(CC(N)=O)C(=O)NC(CC(C)C)C(=O)NCC(=O)NC(CCCCN)C(=O)O)C(C)O)C(C)O` (centres undefined) (H-EIKGTTNLGK-OH; configuration not given here), the result was inactive. Take `C[n+]1c2ccccc2c(CNCC(=O)O)c2ccccc21`: the result was inactive. `COC(=O)C1C(O)CCC2CN3CCc4c([nH]c5ccccc45)C3CC21` (centres undefined): the EC50 is more than 200 µM and the IC50 amounted to 70.8 µM.

`COc1cccc(NC(=O)C(=O)C2C=CCS2(=O)=O)c1` (centres undefined): the EC50 is more than 63.1 µM and the IC50 is more than 63.1 µM.

For the molecule `O=C(OCC1CCCN2CCCCC12)c1cccnc1` (centres undefined), the EC50 is more than 200 µM and the IC50 is more than 200 µM. For the molecule `COC(=O)C(=O)C(C(=O)C(=O)Nc1ccc(Cl)cc1C)c1nc2ccc(C(=O)c3ccccc3)cc2[nH]c1=O` (centres undefined), the outcome was inactive. For the molecule `Nc1cccc2c1-c1c(cccc1[N+](=O)[O-])C2=O`, the result was inactive. Regarding `O=C(OC(=C(c1ccccc1)c1ccccc1)N1CCCC1=S)C(c1ccccc1)c1ccccc1`, the EC50 was more than 200 µM and the IC50 is more than 200 µM. Turning to `O=c1[nH]c(Br)nc2n[nH]nc12`, the EC50 is more than 200 µM and the IC50 was determined as 4.9 µM. In the case of `O=C1[C@@H]2C3SC(c4ccccc43)[C@@H]2C(=O)N1c1ccccc1`, the outcome was inactive. As for `CSc1ncc2c(C#N)c3sc4ccccc4n3c(=O)c2n1`, the EC50 was more than 200 µM and the IC50 is more than 200 µM. Regarding `CNc1ccc(/C=C2\C=Cc3ccccc32)cc1I`, the EC50 was more than 20 µM and the half-inhibitory concentration (IC50) was 3.39 µM. Take `Nc1ncnc2c1ncn2CC(=O)NCCO`: the EC50 is more than 200 µM and the IC50 was more than 200 µM.

Regarding `CC1=C2C(=C(CBr)OS1(=O)=O)C(=O)c1ccccc12`, the EC50 was more than 741 µM and the IC50 turned out to be 38.9 µM. Regarding `O=C(O)c1cc(O)c(Br)c(O)c1N=Nc1ccc(/C=C/c2ccc(N=Nc3c(C(=O)O)cc(O)c(Br)c3O)cc2S(=O)(=O)O)c(S(=O)(=O)O)c1`, the EC50 is 166 µM and the IC50 is more than 200 µM. Regarding `O=C(CCc1cc(-c2ccccc2)nc(=S)[nH]1)Nc1ccccc1[N+](=O)[O-]`, the EC50 is more than 661 µM and the IC50 is more than 661 µM. `CC1CC(C#N)=C2NCCCCN2C1=O` (centres undefined): the outcome was inactive. As to `CC(=O)OC1(C#N)CC2OC1C1NC21` (centres undefined), the EC50 was more than 676 µM and the half-inhibitory concentration (IC50) was more than 676 µM. `OCC1CC(F)C(n2cnc3c(I)ncnc32)O1` (centres undefined): the EC50 is more than 138 µM and the IC50 was determined as 63.1 µM.

In the case of `N#C/C(=C\c1c(Cl)cccc1Cl)c1nc(-c2ccc(Cl)cc2)cs1`, the EC50 is more than 200 µM and the IC50 came out at 72.4 µM. Consider `C#CCOCn1cnc2c(Sc3c([N+](=O)[O-])ncn3C)ncnc21`, for which the EC50 is more than 105 µM and the IC50 worked out at 38 µM. In the same order, the values of `O=C1CC(C(CC(=O)c2ccccc2)c2ccccc2)C(=O)c2ccccc2N1` (centres undefined) are more than 200 µM and 12.6 µM.

As to `Cc1oc2c(c1C)S(=O)(=O)C(C#N)=C(c1ccccc1)N2`, the EC50 is more than 200 µM and the IC50 is more than 200 µM. Consider `c1ccc(SC2=C(Sc3ccccc3)CC2)cc1`, for which the EC50 was more than 200 µM and the IC50 stood at 89.1 µM. For `OC1C2C3CCC(C3)C2C(O)C2C3CCC(C3)C12` (centres undefined) the same measures were more than 200 µM and more than 200 µM. For `C[CH2][Sn]([CH2]C)([O]C(=O)c1cc(OC)c(OC)c(OC)c1)[O][Sn]([CH2]C)([CH2]C)[O]C(=O)c1cc(OC)c(OC)c(OC)c1` the same measures were more than 6.61 µM and more than 6.61 µM.

As to `Cc1nc2cccc(F)c2c(=O)n1-c1nnc(C(F)(F)F)s1`, the EC50 was more than 200 µM and the IC50 was determined as 4.47 µM. For `Fc1ccc(C=NC23CC4CC(CC(C4)C2)C3)cc1` the same measures were more than 28.2 µM and more than 28.2 µM. In the case of `O=C(O)CNS(=O)(=O)c1ccc(NC(=O)c2ccc(Cl)cc2)cc1`, the result was inactive. With `CCOC(=O)N[C@H]1CCc2cc(OC)c(OC)c(OC)c2-c2ccc(SC)c(=O)cc21`, the EC50 was more than 0.2 µM and the half-inhibitory concentration (IC50) stood at 0.00123 µM. On to `CC(C)c1c(P(=O)(c2ccccc2)c2ccccc2)n(C)c2ccccc12`, for which the EC50 was more than 100 µM and the IC50 is 41.7 µM. For the molecule `C[C@@H](c1ccccc1)N1CN(C(=O)OCc2ccccc2)C(CO)C1=O` (some centres undefined), the EC50 is more than 200 µM and the IC50 turned out to be 186 µM. Regarding `CC1(CO)C2CC3CN(C(=O)c4ccccc4)C(C2)[C@]31C` (some centres undefined), the outcome was inactive. For the molecule `O=C(O)C12C3CCC(CC3)C1(C(=O)O)C1CCC2C1` (centres undefined), the EC50 is more than 200 µM and the IC50 is more than 200 µM.

Turning to `CCOC(=O)C1Nc2ccccc2[C@H]2OCC[C@@H]12` (some centres undefined), the EC50 is more than 525 µM and the IC50 was more than 525 µM.

For `Cc1nc(N)c(N2CCN(CN)CC2)c(=O)[nH]1`, the EC50 was more than 200 µM and the IC50 was more than 200 µM. For `CSc1nnc(SC)c2[nH]cnc12`, the EC50 was more than 200 µM and the IC50 is more than 200 µM.

In the case of `CC1(C)OCN(c2ccc(Cl)cc2)Cn2c1nc1ccccc12`, the EC50 is more than 200 µM and the IC50 was determined as 28.8 µM. Regarding `Oc1ccc(/C=C/c2cc(O)cc3c2[C@@H](c2cc(O)cc4c2[C@H](c2cc(O)cc5c2[C@@H](c2cc(O)cc(O)c2)[C@H](c2ccc(O)cc2)O5)[C@@H](c2ccc(O)cc2)O4)[C@H](c2ccc(O)cc2)O3)cc1`, the half-maximal effective concentration (EC50) is 12.3 µM and the IC50 came to 15.8 µM. `O=C(N/N=C/c1cc(-c2ccccc2Cl)c(-c2ccccc2Cl)o1)c1ccncc1`: the EC50 was more than 12 µM and the IC50 is more than 12 µM.

As for `COc1ccc(C2c3cc4c(cc3OC(NCCO)C2C)OCO4)cc1` (centres undefined), the EC50 is more than 200 µM and the IC50 is 21.9 µM.

With `COC(=O)[C@H](Cc1c[nH]c2ccccc12)NP(=O)(O)OC[C@H]1O[C@@H](n2cc(C)c(=O)[nH]c2=O)C[C@@H]1N=[N+]=[N-]`, the EC50 was 28.2 µM and the IC50 is more than 200 µM. Take `CN(C)c1nc(N)c(C#N)c(C#N)c1C#N`: the EC50 is more than 200 µM and the IC50 is 8.71 µM. As for `O=c1c(NO)c([N+](=O)[O-])cnn1-c1ccccc1`, the EC50 was more than 89.1 µM and the IC50 is 0.316 µM. For `[Cl][Ni].[NH-]C(Cc1c[nH]cn1)C(=O)O` (centres undefined) the same measures were more than 100 µM and more than 100 µM. Take `COc1ccc(OC)c(CSc2ccc(OC)c(OC)c2)c1`: the EC50 was more than 200 µM and the IC50 came to 85.1 µM. In the case of `Cc1cc(CO)c(O)c(CN(CC(=O)O)CC(=O)O)c1`, the EC50 is more than 200 µM and the IC50 was found to be 141 µM. As to `COC(=O)[C@@H]1C[C@H]([Se]c2ccccc2)CN1S(=O)(=O)c1ccc(C)cc1`, the outcome was inactive. For the molecule `COc1ccc(C2OCC3C(c4ccc(OC)c(OC)c4)OCC23)cc1OC` (centres undefined), the EC50 was more than 200 µM and the IC50 is 97.7 µM. `CC(=O)N1N=C(N)CC1=O`: the EC50 is more than 200 µM and the IC50 was more than 200 µM. Take `COc1ccc(C2c3cc(OC)c(OC)cc3C(Cc3ccc([N+](=O)[O-])cc3)C2c2ccc([N+](=O)[O-])cc2)cc1OC` (centres undefined): the EC50 is more than 2.51 µM and the concentration for half-maximal inhibition (IC50) is more than 2.51 µM. As for `C[C@H]1OCN(C(=O)c2cc3ccccc3cc2SSc2cc3ccccc3cc2C(=O)N2CO[C@H](C)[C@H]2C(=O)O)[C@@H]1C(=O)O`, the EC50 is more than 100 µM and the IC50 is more than 100 µM. For the molecule `NC(CC1=CS(=O)(=O)c2ccc(Cl)cc21)C(=O)O` (centres undefined), the EC50 was more than 200 µM and the IC50 is more than 200 µM. In the case of `Cc1ccc2[nH]c3c(c2c1)[n+]([O-])c1ccccc1[n+]3[O-]`, the EC50 is more than 200 µM and the IC50 stood at 38.9 µM. Turning to `OC1c2ccccc2C2C(O)c3ccccc3C12` (centres undefined), the outcome was inactive.

In the case of `O=S1c2ccccc2N=C(c2cccs2)CC1c1ccccc1O` (centres undefined), the EC50 was more than 10.7 µM and the IC50 was more than 10.7 µM. Consider `O=c1ssc2ccccc12`, for which the EC50 was more than 200 µM and the IC50 amounted to 120 µM. As to `COc1c(C)c2c(c(C)c1Cl)Oc1c(C=O)c(O)c(Cl)c(C)c1C(=O)O2`, the EC50 was more than 18.2 µM and the IC50 was more than 18.2 µM. On to `Clc1ccc(OCc2nnc(CCCCCCCCc3nnc(COc4ccc(Cl)cc4)o3)o2)cc1`, for which the EC50 is more than 200 µM and the IC50 stood at 89.1 µM. As to `Cn1c(=O)n(C2(C)CSC2)c2ccccc21`, the EC50 was more than 562 µM and the IC50 worked out at 178 µM.

With `CC#CC(O)(C(=O)OC1CC(C)N(C)C(C)(C)C1)C1CCCC1` (centres undefined), the EC50 was more than 200 µM and the IC50 was more than 200 µM.

As to `O=C(O)CC1Sc2ccccc2NC1=O` (centres undefined), the EC50 was more than 1120 µM and the IC50 is more than 1120 µM. `C=C1CC(c2ccc(OCCCN3C(=O)c4ccccc4C3=O)c(OC)c2)OC1=O` (centres undefined): the EC50 was more than 20 µM and the IC50 is 0.912 µM. Turning to `Cn1c(COC(=O)Nc2ccccc2)c(COC(=O)Nc2ccccc2)c2ccc3cc(Cl)c(Cl)cc3c21`, the EC50 was more than 200 µM and the IC50 turned out to be 0.468 µM. As for `Nc1nccc(NCC2(CO)CC(CCc3ccccc3)C2)n1` (centres undefined), the EC50 was more than 200 µM and the IC50 was 10.5 µM. In the same order, the values of `CC1(C)C2CCC1(CS(=O)(=O)Nc1ccccc1)C(=O)C2` (centres undefined) are more than 200 µM and more than 200 µM. For `Nc1ccc(C(=O)Oc2ccccc2)c(O)c1`, the EC50 was more than 200 µM and the IC50 was more than 200 µM.

Consider `O=C1C(=O)N(c2ccc(Cl)cc2)C(=O)C(=O)C1c1nc2ccccc2s1`, for which the EC50 was more than 18.6 µM and the IC50 was more than 18.6 µM. For the molecule `O=Nc1[nH]c(O)c2ccccc12`, the EC50 was more than 200 µM and the 50% inhibitory concentration (IC50) was more than 200 µM. Take `CCOc1ccc(C2=NN(CC)C(=O)C(C3C(=O)N(c4ccccc4)N=C3C)C2)cc1` (centres undefined): the EC50 was more than 120 µM and the half-maximal inhibitory concentration (IC50) was more than 120 µM.

As for `COC(=O)C1=C(C)N2CCOC2CC1c1ccccc1` (centres undefined), the EC50 is more than 200 µM and the IC50 stood at 135 µM.
